In patent publication US7033829B2, “Method to inhibit cell growth using oligonucleotides” (Trustees of Boston University, priority 2000, dated 2006):
Oligonucleotides are written 5' to 3', each unit as a sugar letter and its base; * is a phosphorothioate linkage, no mark a phosphodiester; rarer units and linkages stand in square brackets, end groups in braces. Plain capitals give the bases only. d = 2'-deoxy (DNA); {P} = phosphate

Key:
[1] = test system: human melanoma line MM-AN; test: FACS analysis of MM-AN melanoma cells; type: cell-based; conditions: 40 μM
Method: Proteins were analyzed by denaturing polyacrylamide gel electrophoresis (SDS-PAGE), using 10% polyacrylamide, and western blot analysis was done with an E2F1-specific monoclonal antibody (KH95 Santa Cruz Biotechnology, Santa Cruz, Calif.), and p73 analyzed using a polyclonal antibody (AB-4 from Oncogene Research Products, San Diego, Calif.). […] In order to determine the contribution of p73 to cell death, MM-AN melanoma cells were stably transfected with a dominant negative p73 (p73DN) (Irwin et al., Nature 402:645–648) construct or empty vector as a control (p73^DN-containing vector a gift from Dr. William Kaelin, Dana Farber Institute, Boston) and paired cultures were supplemented with 40 μM 11mer-1 or diluent alone, then harvested at 72 hours for FACS analysis. […] The above-mentioned differentiation markers are expressed in normal human melanocytes. It appears that the loss of expression of these antigens is a mechanism that a subset of human melanomas uses to escape immunosurveillance defenses. Several peptides from these antigens are targets of tumor infiltrating cytotoxic lymphocytes. Encouraging results have been obtained in vivo with different vaccination strategies using antigenic peptides from the above antigens.

[2] = test system: p53-null osteosarcoma cell line (Saos-2); test: FACS cell cycle analysis of Saos-2 cells; type: cell-based, human; conditions: 40 μM; 48 hours
From the text: In order to determine whether these oligonucleotides similarly affect other human cell types and to investigate the role of p53, we treated a squamous cell carcinoma line (SCC12F) (Rheinwald, J. G., et al., 1983, Human carcinogenesis. pp. 86–96. Academic Press (New York)) that over-expresses a presumptively mutated p53 (Eller, M. S. and B. A. Gilchrest. 2000, Pigment Cell Res. 13: 94–97) and a p53-null osteosarcoma cell line (Saos-2) (Wang, L. H., et al., 1998, Anticancer Res 18: 321–325) with either diluent alone, 11mer-1, 11mer-2 or 11mer-3. Cultures were analyzed by FACS after 48 hours (FIGS. 33A–33H). […] Although the percentage of cells in the S-phase in 11mer-1-treated SCC12F and Saos-2 cells was virtually identical (53±6% and 52±1%, respectively), the G0/G1 and G2/M content of the two cell types were somewhat different. This may reflect differential uptake of the oligonucleotide leading to dose-dependent differences, and/or different pathways acting in these cells to control the cell cycle. No apoptotic response to the oligonucleotides was detected in either cell type within 72 hours.

[3] = test system: tumor necrosis factor alpha gene (TNFα); test: Northern blot of TNFα in keratinocytes; type: cell-based, human; conditions: 24–72 hours
From the text: This immunomodulatory cytokine, known to be induced by UV irradiation, may thus be induced by T2. Use of locally applied DNA fragments, deoxynucleotides, dinucleotides, or dinucleotide dimers is useful in immunomodulation of cutaneous reactions and in treatment or prevention of diseases or conditions involving immune mediators.

p53 = p53 immunoperoxidase staining in fibroblasts; type: cell-based, human; conditions: normal neonatal fibroblasts; 100 μM; within 24 hours
Method: The effect of pTpT on the level and intracellular distribution of p53 in normal neonatal fibroblasts was examined by immunoperoxidase staining using a p53-specific monoclonal antibody (mAb 421, Oncogene, Cambridge, Mass.). Preconfluent cultures were treated with either 100 μM pTpT or diluent for 24 hours before cell staining. Cells were first fixed for one minute in Histochoice fixative (Amresco, Solon, Ohio) followed by a five-minute rinse in PBS. p53 was detected using the Vectastain Elite ABC kit (Vector Laboratories, Burlingame, Calif.) and the p53-specific monoclonal antibody mAb 421.

SOD2 = SOD2 western blot in fibroblasts; type: cell-based, human; conditions: 100 μM
Method: Fibroblasts (newborn human) were maintained in Dulbecco's Modified Eagle Medium (DMEM) supplemented with 10% calf serum (CS) and 100 μM pTpT or diluent as control. Total cellular proteins were harvested at different intervals after stimulation and processed for western blot analysis. The blot was reacted with anti SOD2 antibodies (The Binding Site, Inc. San Diego, Calif.). […] Coomassie blue-stained residual bands on the gel confirmed uniform loading of the different lanes.

[4] = test system: pCMV-Luc plasmid in human newborn fibroblasts; test: Repair of singlet oxygen-damaged pCMV-Luc plasmid in fibroblasts; type: cell-based; conditions: 100 μM 48 hours
Method: The plasmid pCMV-Luc is a non-replicating vector containing a reporter gene, luciferase, under the control of a strong constitutive cytomegalovirus promoter (gift of Dr. Hedayati, Johns Hopkins University). Singlet oxygen-induced DNA damage of the plasmid was generated by irradiating the plasmid with visible light for different time intervals (0 min, 10 min and 20 min), in the presence of the photosensitizer methylene blue. Fibroblasts (human newborn), pretreated for 48 hours with 100 μM pTpT or with diluent alone, were transfected with 0.5 μg of pCMV-Luc using Lipofect Aminem (Promega, Madison, Wis.). After two days, plasmid-encoded luciferase activity was determined in cell extracts (Promega luciferase assay). Pretreatment with pTpT enhanced the repair of singlet oxygen-induced DNA damage after […] by 179% and 228% respectively. FIG. 26 represents luciferase activity as a percent of luciferase activity assayed in fibroblasts transfected with sham irradiated plasmid.

## pGTTAGGGTTAG (DNA {P}-dGdTdTdAdGdGdGdTdTdAdG) [SEQ ID NO: 5]
[1]
  cell cycle: first entered an S-phase arrest
[1]; 72 hours
  apoptosis rate of cells expressing p73^DN: at half the rate of control cells
[1]; by 72 hours
  apoptosis (sub-G0/G1 DNA content): a substantial portion of the cells were undergoing apoptosis
[2]
  cells in the S-phase: 52±1%

## thymidine dinucleotide [pTpT]
[3]
  TNFα gene expression (Northern blot): induction of the tumor necrosis factor alpha gene
p53
  intranuclear p53: an increase in intranuclear p53
SOD2
  SOD2 protein induction: SOD2 induction was sustained at least through 32 hours
[4]; 10 mJ/cm^2
  enhanced repair of singlet oxygen-induced DNA damage: 179%
[4]; 20 mJ/cm^2
  enhanced repair of singlet oxygen-induced DNA damage: 228%
